“Also recorded” adds a separate entry of the source.
How the values were obtained:
primary cortical neurons [1] = system: primary cortical neurons
primary cortical neurons [2] = assay type: cell-based
primary cortical neurons [3] = assay type: cell-based; remark: listed apart in the source
primary cortical neurons [4] = system: primary cortical neurons; remark: listed apart in the source
[5] = system: mouse middle cerebral artery occlusion (MCAO) stroke model; details: in vivo
primary cortical neurons [6] = assay type: cell-based; remark: listed apart in the source
[7] = system: mouse middle cerebral artery occlusion (MCAO) stroke model; details: in vivo; remark: listed apart in the source
[8] = system: mouse middle cerebral artery occlusion (MCAO) stroke model; details: in vivo; remark: listed apart in the source

In the case of `O=C1CC[C@@]2(O)[C@H]3Cc4ccc(O)c5c4[C@@]2(CCN3CC2CC2)[C@H]1O5` [NTX, naltrexone], the “neuronal survival (MTT), NMDA, in words” value (primary cortical neurons [1]) is reported as “did not show any significant effect”, the “neuronal death (LDH), NMDA, in words” value (primary cortical neurons [2]) is reported as “did not show any significant effect” and the “neuronal death (LDH), in words” value (primary cortical neurons [3]) is reported as “No statistical significant difference”. The “neuronal survival (MTT), in words” value (primary cortical neurons [4]) was “No statistical significant difference”, the “neurological score, in words” value [5] was “did not improve any neurological score” and the “ROS production, in words” value (primary cortical neurons [6]) was “did not show a significant decrease in ROS production”.
In the case of `C[C@@H](NC(=O)[C@@H](N)Cc1ccc(O)cc1)C(=O)NCC(=O)N[C@@H](Cc1ccccc1)C(=O)NNC(=O)[C@H](Cc1ccccc1)NC(=O)CNC(=O)[C@@H](C)NC(=O)[C@@H](N)Cc1ccc(O)cc1` [biphalin], the “neuronal survival (MTT), NMDA, in words” value (primary cortical neurons [1]) is reported as “significantly improved relative neuronal survival”, the “more neuronal survival (MTT), NMDA” value (primary cortical neurons [1]; 3 h) is reported as 28.7% and the “edema formation, in words” value [7] is reported as “significantly decreased edema formation”. The “infarct formation, in words” value [7] was “significantly decreased; also recorded: significantly reduced infarct formation”, the “reduction in edema formation” value [7] was 56.17% and the “reduction in infarct ratio” value [7] was 67.0%. For the same compound, the “less LDH release, NMDA” value (primary cortical neurons [2]) was 18.4%, the “neuronal death (LDH), NMDA, in words” value (primary cortical neurons [2]) was “significantly decreased relative neuronal death” and the “less LDH release” value (primary cortical neurons [3]) was 30.5%. For the same compound, the “neuronal death (LDH), in words” value (primary cortical neurons [3]) was “significantly decreased neuronal cell death”, the “neuronal survival (MTT), in words” value (primary cortical neurons [4]) was “significantly increased neuronal survival” and the “more neuronal survival (MTT)” value (primary cortical neurons [4]; 3 h, 10 nM) was 42.6%. For the same compound, the “Horizontal Activity” value [8] was 760, the “No. of Movements” value [8] was 42 and the “Rest Time” value [8] was 240 s. The “Stereotpy Counts” value [8] was 390, the “Total Distance (CM)” value [8] was 650 CM and the “Vertical Activity” value [8] was 28. For the same compound, the “locomotor parameters, in words” value [8] was “statistically significantly improved all the locomotor parameters”, the neurological score improvement [5] was 25.5% and the “neurological score, in words” value [5] was “improved neurological behavior”. The “ROS production, in words” value (primary cortical neurons [6]) was “significantly decreased ROS production” and the “less ROS production” value (primary cortical neurons [6]) was 29.1%.
